tested on: SIRT1; experiment: cells; set-up: species or system U2OS or HEK 293; AlphaScreen of acetylated K310-p65 in lysates of cells co-expressing p300 and HA-p65; reduction by SIRT1 activators; settings: reduction of cellular acetylated p65 (K310); read-out: Cellular p65 acetylation assay IC50
Experimental: Acetylated p65 protein in cell lysates was measured by an AlphaScreen format based assay (Bosse et al., Principles of AlphaScreen. PerkinElmer Application Note (2001)). A sandwich comprised of a biotinylated anti-HA antibody (Roche, 12158167001) bound to streptavidin coated donor beads (PerkinElmer, 6760617M) and an anti-acetylated K310-p65 antibody (Abcam, ab19870) interacting with protein A coated acceptor beads was assembled to detect light emission upon acetylated HA-p65 protein binding to the donor and acceptor beads. A similar AlphaScreen assay to measure total HA-tagged p65 protein was also developed by replacing the anti-acetylated K310-p65 antibody with an anti-p65 antibody (Santa Cruz, sc-109). The level of acetylated p65 protein was normalized against the total HA-tagged p65 protein measured in parallel for the same sample. We developed a high throughput cellular assay to examine the ability of compounds to promote SIRT1-mediated deacetylation of p65 protein in cells. This assay system uses BacMam virus transduction in U2OS or HEK 293 cells to co-express p300 HAT and an HA-tagged p65 NF-κB subunit to enable detection of acetylated p65. […] Similarly, pharmacological inhibition of SIRT1 by a specific SIRT1 inhibitor, EX-527 [46], increased the levels of acetylated p65 protein (Figure 3D). […] STACs that were identified from biochemical assays (File S1) were evaluated in the acetylated p65 cellular assay. […] The compounds were tested for the inhibition of histone acetyltransferases (HATs) since this could result in a reduction of acetylated p65 that could not be distinguished from an enhancement of deacetylation.

IC50 [nM] | SMILES
> 25000 | O=C(Nc1nccs1)c1cccc2[nH]c(-c3ccc4c(c3)OC(F)(F)O4)nc12 [SRTCZ1001]
840 | O=C(Nc1nccs1)c1cccc2[nH]c(-c3cccc(N4CCOCC4)c3)nc12 [SRTCX1002]
1420 | O=C(Nc1nccs1)c1cccc2[nH]c(-c3ccccc3OCCN3CCOCC3)nc12 [SRTCX1003]

Source: PMC3460821, “SIRT1 Activators Suppress Inflammatory Responses through Promotion of p65 Deacetylation and Inhibition of NF-κB Activity” (PLoS ONE, 2012)
